# According to patent US10221163B2 (priority 2015, dated 2019):
# Like-named read-outs stand apart in the source and are kept apart here.
# Tests used:
# VIM-1 = VIM-1 (Pseudomonas aeruginosa (strain ATCC 15692 / DSM 22644 / CIP 104116 / JCM 14847 / LMG 12228 / 1C / PRS 101 / PAO1), UniProt A0A0F7KYQ8); test: biochemical; settings: CCF2-FA substrate, 30 pM enzyme, 2 hours at 25° C.
# Method in brief: (§1)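 Semi-log dose-response curves, fitted with a 4-parameter model, gave IC50s. The underlying signal was CCF2-FA fluorescence following 2 hours at 25° C with enzyme, substrate and inhibitor combined.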
# [1] = test system: Serratia marcescens expressing IMP-1 (CL5741); assay type: cell-based; settings: with imipenem 1 μg/ml; 95% inhibition of bacterial growth
# Method in brief: (§2)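 Clinical strains grown overnight on blood agar at 35°C, colonies suspended in saline, diluted 1:100 into 1.1×CAMHB. Test compound titrated with imipenem at 1 μg/ml; incubated 22–24 h at 35°C, growth read by absorbance.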
# [2] = test system: Escherichia coli expressing NDM-1 (CLB30005, CLB30016); assay type: cell-based; settings: with imipenem 1 μg/ml; 95% inhibition of bacterial growth
# Method in brief: as §2
# [3] = test system: Klebsiella pneumoniae expressing VIM-1 (IHMA599644); assay type: cell-based; settings: with imipenem 1 μg/ml; 95% inhibition of bacterial growth
# Method in brief: as §2
# [4] = test system: Pseudomonas aeruginosa efflux− (MB9799), IMP-1; assay type: cell-based; settings: concentration restoring susceptibility to imipenem at 2 μg/mL in the presence of a class A, C, D serine β-lactamase inhibitor closely related to relebactam
# Method in brief: (§3)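 PAO1 pair, broth microdilution; fixed β-lactam (imipenem/ceftazidime) at ~CLSI breakpoint + fixed class A/C BLI for AmpC; serial MBLi titration; endpoint = MBLi conc. restoring susceptibility; MB9798:MB9799 ratio = efflux liability.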
# [5] = test system: Pseudomonas aeruginosa efflux+ (MB9798), IMP-1; assay type: cell-based; settings: concentration restoring susceptibility to imipenem at 2 μg/mL in the presence of a class A, C, D serine β-lactamase inhibitor closely related to relebactam
# Method in brief: as §3
# IMP-1 = IMP-1 (Serratia marcescens, UniProt P52699); test: biochemical; assay type: biochemical; settings: fluorescence assay, CCF2-FA substrate, 2 pM enzyme, 2 hours at 25° C.; read-out: IMP-1 IC50
# Method in brief: as §1
# NDM-1 = NDM-1 (Klebsiella pneumoniae, UniProt C7C422); test: biochemical; assay type: biochemical; settings: fluorescence assay, CCF2-FA substrate, 1 pM enzyme, 2 hours at 25° C.; read-out: NDM-1 IC50
# Method in brief: as §1
# [6] = test system: Pseudomonas aeruginosa MB9798 vs MB9799; settings: ratio MITC95 PA_9798/MITC95 PA_9799
# Method in brief: as §3
# [7] = fluorescence assay, read-out: VIM-1 IC50
# Chain of NDM-1 (C7C422 whole entry, looked up, species assumed): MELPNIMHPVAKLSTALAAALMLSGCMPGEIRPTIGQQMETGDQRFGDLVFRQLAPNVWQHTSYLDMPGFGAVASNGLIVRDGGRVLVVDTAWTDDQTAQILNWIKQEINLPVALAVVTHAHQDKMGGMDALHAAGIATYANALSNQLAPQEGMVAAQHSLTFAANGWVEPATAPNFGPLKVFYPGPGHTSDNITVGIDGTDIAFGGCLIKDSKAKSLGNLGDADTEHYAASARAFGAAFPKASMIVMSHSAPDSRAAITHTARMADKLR
# Chain of IMP-1 (P52699 whole entry, looked up, species assumed): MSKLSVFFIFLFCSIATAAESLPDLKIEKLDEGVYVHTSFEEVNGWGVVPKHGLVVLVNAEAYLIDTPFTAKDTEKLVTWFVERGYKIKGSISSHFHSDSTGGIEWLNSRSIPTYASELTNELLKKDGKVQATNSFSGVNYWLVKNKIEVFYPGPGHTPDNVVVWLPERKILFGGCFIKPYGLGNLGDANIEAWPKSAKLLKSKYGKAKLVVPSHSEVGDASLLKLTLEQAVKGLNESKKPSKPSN
SMILES,"IC50 (VIM-1; VIM-1 IC50, fluorescence assay) [nM]",Serratia marcescens expressing IMP-1 (CL5741) MITC95 [1] [µM],Escherichia coli expressing NDM-1 (CLB30016) MITC95 [2] [µM],Klebsiella pneumoniae expressing VIM-1 (IHMA599644) MITC95 [3] [µM],"P. aeruginosa expressing IMP-1, efflux − (MB9799) MITC95 [4] [µM]","P. aeruginosa expressing IMP-1, efflux + (MB9798) MITC95 [5] [µM]",IC50 (IMP-1) [nM],IC50 (NDM-1) [nM],Efflux ratio [6],IC50 (VIM-1; [7]) [nM]
"Cn1nnc2ccc(-c3ccc(S(=O)(=O)N[C@@H]4CCNC4)c(S(N)(=O)=O)c3-c3nnn[nH]3)cc21 [Example 134, (R)-4-(1-methyl-1H-benzo[d][1,2,3]triazol-6-yl)-N1-(pyrrolidin-3-yl)-3-(1H-tetrazol-5-yl)benzene-1,2-disulfonamide]",0.14,3.125,1.563,3.125,1.563,25,2.07,0.301,15.99,
"NS(=O)(=O)c1ccc(-c2ccc(S(=O)(=O)N[C@@H]3CCNC3)c(S(N)(=O)=O)c2-c2nnn[nH]2)cc1 [Example 135, (R)-N4-(pyrrolidin-3-yl)-2-(1H-tetrazol-5-yl)-[1,1′-biphenyl]-3,4,4′-trisulfonamide]",,1.563,1.563,1.563,0.7813,0.7813,0.229,0.136,1.00,0.107
"CS(=O)(=O)Nc1ccc(-c2ccc(S(=O)(=O)N[C@@H]3CCNC3)c(S(N)(=O)=O)c2-c2nnn[nH]2)cc1 [Example 136, (R)-4′-(methylsulfonamido)-N4-(pyrrolidin-3-yl)-2-(1H-tetrazol-5-yl)-[1,1′-biphenyl]-3,4-disulfonamide]",,3.125,1.563,1.563,0.7813,1.563,0.0755,0.0368,2.00,0.105
"NC(=O)c1ccc(-c2ccc(S(=O)(=O)N[C@@H]3CCNC3)c(S(N)(=O)=O)c2-c2nnn[nH]2)cc1 [Example 137, (R)-4′-(N-(pyrrolidin-3-yl)sulfamoyl)-3′-sulfamoyl-2′-(1H-tetrazol-5-yl)-[1,1′-biphenyl]-4-carboxamide]",,3.125,3.125,3.125,0.7813,0.7813,0.265,0.126,1.00,0.157
"NS(=O)(=O)c1c(S(=O)(=O)N[C@@H]2CCNC2)ccc(-c2ccc3c(c2)C(=O)NC3)c1-c1nnn[nH]1 [Example 138, (R)-4-(3-oxoisoindolin-5-yl)-N1-(pyrrolidin-3-yl)-3-(1H-tetrazol-5-yl)benzene-1,2-disulfonamide]",,3.125,3.125,3.125,1.563,1.563,0.275,0.124,1.00,0.15
"NS(=O)(=O)c1c(S(=O)(=O)N[C@@H]2CCNC2)ccc(-c2cccc3cn[nH]c23)c1-c1nnn[nH]1 [Example 139, (R)-4-(1H-indazol-7-yl)-N1-(pyrrolidin-3-yl)-3-(1H-tetrazol-5-yl)benzene-1,2-disulfonamide]",0.141,1.563,0.7813,3.125,0.7813,0.7813,0.41,0.0582,1.00,
"NS(=O)(=O)c1c(S(=O)(=O)N[C@@H]2CCNC2)ccc(-c2cnc3ccccn23)c1-c1nnn[nH]1 [Example 140, (R)-4-(imidazo[1,2-a]pyridin-3-yl)-N1-(pyrrolidin-3-yl)-3-(1H-tetrazol-5-yl)benzene-1,2-disulfonamide]",,1.563,0.7813,1.563,0.7813,1.563,0.779,0.0867,2.00,0.111
"C[C@H]1NC(=O)O[C@H]1c1ccc(-c2ccc(S(=O)(=O)N[C@@H]3CCNC3)c(S(N)(=O)=O)c2-c2nnn[nH]2)cc1 [Example 141, 4′-((4R,5S)-4-methyl-2-oxooxazolidin-5-yl)-N4-((R)-pyrrolidin-3-yl)-2-(1H-tetrazol-5-yl)-[1,1′-biphenyl]-3,4-disulfonamide]",,6.25,3.125,6.25,1.563,1.563,0.0408,0.0186,1.00,0.0623
"Nc1nc2c(-c3ccc(S(=O)(=O)N4CCNCC4)c(S(N)(=O)=O)c3-c3nn[nH]n3)cccc2s1 [Example 142, 3-(2-Aminobenzo[d]thiazol-4-yl)-6-(piperazin-1-ylsulfonyl)-2-(2H-tetrazol-5-yl)benzenesulfonamide]",,1.563,3.906,3.125,1.172,1.563,0.636,0.185,1.33,0.558
"Nc1nc2c(-c3ccc(S(N)(=O)=O)c(S(N)(=O)=O)c3-c3nn[nH]n3)cccc2s1 [Example 143, 4-(2-aminobenzo[d]thiazol-4-yl)-3-(2H-tetrazol-5-yl)benzene-1,2-disulfonamide]",,1.563,3.125,12.5,1.563,0.7813,0.266,0.0849,0.50,0.22
"Nc1nc2c(-c3ccc(S(=O)(=O)NCCO)c(S(N)(=O)=O)c3-c3nn[nH]n3)cccc2s1 [Example 144, 4-(2-aminobenzo[d]thiazol-4-yl)-N1-(2-hydroxyethyl)-3-(2H-tetrazol-5-yl)benzene-1,2-disulfonamide]",,3.125,12.5,12.5,3.125,3.125,0.288,0.0898,1.00,0.162
"NCCNS(=O)(=O)c1ccc(-c2cccc3sc(N)nc23)c(-c2nn[nH]n2)c1S(N)(=O)=O [Example 145, 4-(2-aminobenzo[d]thiazol-4-yl)-N1-(2-aminoethyl)-3-(2H-tetrazol-5-yl)benzene-1,2-disulfonamide]",,0.7813,0.7813,1.563,0.7813,0.3906,0.221,0.0343,0.50,0.182
